Measurements as given in patent publication US20120289492A1, “METHODS OF TREATING MITOCHONDRIAL DISORDERS USING METALLOPORPHYRINS” (priority 2009, published 2012).

Experiments:
[1] = system: 1-methyl-4-phenyl-1,2,3,6-tetrahydropyridine (MPTP) neurotoxicity; conditions: oral administration; cited from earlier work
[2] = system: mitochondrial SOD activity; test: SOD2 activity assay in forebrain mitochondrial fractions; type: in vivo; conditions: treated Sod2−/− mice vs Sod2+/+ mice (1.56±0.17 units/mg protein)
[3] = Peroxynitrite-induced oxidation of dihydrorhodamine-123; type: biochemical; conditions: peroxynitrite 1 μM, dihydrorhodamine 123 10 μM, pH 7.4
Description: Mitochondrial oxidative stress production To determine if increased oxidative stress occurred in mitochondrial fractions, the levels of CoASH, CoASSG, aconitase, ascorbate, cysteine, methionine and 3-NT were examined in the forebrain of Sod2 −/− mice at 15-16 days old. GSH is the most abundant thiol containing antioxidant in tissues and brain (Meister & Anderson (1983) Annu Rev Biochem 52, 711-60) and plays an important role in preventing oxidative damage. […] To determine if direct scavenging of ONOO− could result in decreased 3NT levels by AEOL11207, we measured its ability to inhibit ONOO-induced oxidation of dihydrorhodamine-123.
Measurement of peroxynitrite-induced oxidation of dihydrorhodamine-123 inhibition by metalloporphyrins The peroxynitrite-dependent oxidation of dihydrorhodamine-123 to rhodamine-123 is measured based on previously described methods (Kooy et al. (1994) Free Radic Biol Med 16, 149-56; Szabo, et al. (1996) FEBS Lett 381, 82-6). […] After 10 min incubation at room temperature, the fluorescence of rhodamine 123 was measured using a fluorimeter (Perkin-Elmer, Norwalk, Conn.) at an excitation wavelength of 500 nm, emission wavelength of 536 nm

[4] = Scavenging of reactive oxygen species in cell-free systems and isolated mitochondria; type: biochemical
[5] = system: forebrain of Sod2−/− mice; test: Mitochondrial oxidative stress and bioenergetic indices in brain of Sod2−/− mice; type: in vivo
[6] = system: kainate-induced epileptogenesis in rats; test: Kainate-induced chronic epilepsy development (rat model of temporal lobe epilepsy); type: in vivo
Experimental: The rat model of temporal lobe epilepsy is initiated by a single injection of a chemoconvulasant agent which results in spontaneous epileptic seizure arise several days to weeks thereafter. Groups of rats administered vehicle, kainate (a chemoconvulsant used to initiate injury), kainate+AEOL11207 and AEOL11207 were monitored 6 weeks for behavioral seizures and indices of oxidative stress (GSH/GSSG, CoASH/CoASSG). AEOL11207 was administered at an arbitrary dose of 5 mg/kg, s.c. daily beginning 6 hr after injection of kainate (11 mg/kg). All of the rats in both groups experienced SE after kainate injection, and there was no difference in any of the characteristics of SE between the groups. […] The time to develop chronic epilepsy (latency to chronic epilepsy), spontaneous seizure frequency, severity and duration was determined.
In another exemplary experiment, pharmacological removal of ROS was examined for its inhibition on kainate-induced epileptogenesis. A pilot was performed in which groups of rats administered vehicle (n=4), kainate (n=6), kainate+AEOL11207(n=6) and AEOL11207 (n=4) were monitored 6 weeks for behavioral seizures (Table 1) and indices of oxidative stress (GSH/GSSG, CoASH/CoASSG) (FIG. 6).
AEOL11207 was administered at a dose of 5 mg/kg, s.c. daily beginning 6 hr after injection of kainate ([…]). All of the rats in both groups experienced SE after kainate injection, and there was no difference in any of the characteristics of SE between the groups. […] The time to develop chronic epilepsy (latency to chronic epilepsy), spontaneous seizure frequency, severity and duration was determined as previously described. […] None of the rats in the control or AEOL11207 alone groups developed seizures. […] FIG. 6 and Table 1 illustrate the effect of AEOL11207 on kainate-induced chronic epilepsy development (n=6/group) and oxidative stress (n=4-6 per group).

[7] = forebrain mitochondrial fraction of Sod2−/− mice
[8] = kainate rats, compared to controls
[9] = the 2 rats of the kainate+AEOL11207 group that developed epilepsy

## COC(=O)c1c2nc(c(C(F)(F)F)c3ccc([n-]3)c(C(=O)OC)c3nc(c(C(F)(F)F)c4ccc1[n-]4)C=C3)C=C2.[Cl-].[Mn+3] [AEOL11207]
[1]
  protection against MPTP neurotoxicity: protected
[2]
  Cyanide insensitive SOD activity compared to Sod2+/+ mice: ~40%
[3]
  IC50: 3.7 µM
[4]
  scavenging of mitochondrial O2-, H2O2 and lipid peroxides: catalytically scavenges
[5]; brains of Sod2−/− mice
  depletion of ascorbate: significantly attenuated
  depletion of glutathione: significantly attenuated
[5]; [7]
  decrease in cysteine: significantly attenuated
  decrease in methionine: significantly attenuated
[5]; forebrain of Sod2−/− mice, 15-16 days old
  increased CoASSG: significantly attenuated
[5]; hippocampus of Sod2−/− mice, Western blot
  decrease in glutamate transporter GLT-1 expression: significantly attenuated
[6]; AEOL11207 alone group, no kainate
  rats that developed seizures: None
[6]; in comparison with two-thirds in the kainate group
  rats that developed chronic epilepsy during 6 weeks: one-third
[6]; kainate + 5 mg/kg s.c. daily, kainate alone 33.3 ± 1.9
  Duration of seizures (sec.): 28.3 ± 2.2*p < 0.05 sec.
[6]; [8]
  CoASH/CoASSG ratio: significantly improved
  GSH/GSSG ratio: significantly improved
[6]; [9]
  decrease of seizure duration: ~15%
  number of seizures per animal: no changes
